Measured values reported in patent publication US4268630A, “Microbiological production of ketones from C3 -C6 alkanes” (priority 1979, dated 1981).

What was measured:
[1] = test system: Methylomonas albus BG8 (NRRL B-11,200); test: Oxidation of sec-alcohols to ketones by resting cell suspension; assay type: cell-based
Procedure: (§1) The pH of the nutrient medium was adjusted to 7.0 by the addition of acid or base and 50 ml. samples of the nutrient medium were charged into a plurality of 300 ml. shaker flasks. The shaker flasks were inoculated with an inoculating loop of cells from an agar plate containing homogeneous colonies of the microorganisms on the plate (the purity of the isolates was confirmed by microscopic examination). The isolates had been maintained on methanol (0.4% V/V) agar plates or on agar plates under an atmosphere of methane and air having a 1:1 V/V gas ratio which had been transferred every two weeks. For growth on methanol, the medium was supplemented with 0.4% methanol. For growth on methane, the gaseous phase of the inoculated flasks was replaced with a gas mixture comprised on methane and air having a ratio of 1:1 on a V/V basis. The inoculated flasks were sealed air-tight and were incubated on a rotary shaker of orbital radius 2.5 cm. at 250 rpm and at 30° C. for two days until turbidity in the medium had developed. The cells were harvested by centrifugation at 10,000×g. at 4° C. for 30 minutes. The cell pellet was washed twice with a 0.05 M phosphate buffer at a pH of 7.0 (containing 0.02 M MgCl2). The washed cells were then suspended in a 0.05 M phosphate buffer at pH 7.0.
(§2) A 0.5 ml. sample of each washed cell suspension (2 mg. cells) was put into 10 ml. vials at 4° C. which were sealed with a rubber cap. The gaseous phase of the vials was removed with vacuum and then was replaced with a gas mixture of the substrate reactant (i.e., alkane or secondary alcohol) and oxygen at a 1:1 V/V ratio. (In the case of a liquid substrate, i.e., secondary alcohol, 10 μl of the substrate was put in the 10 ml. vials). […] Samples of product (1-3 μl) were withdrawn periodically with a microsyringe and the products were analyzed by gas chromatography (ionization flame detector column).
(§3) The procedure in Example 1 was repeated wherein a plurality of the methane-utilizing methylotrophic microorganisms were each grown aerobically in a nutrient medium containing methane as the alcohol dehydrogenase enzyme inducer and as the major carbon and energy source for growth. The cells were harvested and washed as described in Example 1. The resting microbial cells of the induced methane-grown methane-utilizing methylotrophic microorganisms were then contacted with C3 -C6 secondary alcohols in a buffered solution by the procedure of Example 1.
(§4) In this example, the procedure in Example 1 was repeated except that a plurality of methane-utilizing methylotrophic microorganisms were each aerobically grown in a methanol-containing nutrient medium instead of a methane-containing medium. The nutrients in the medium were the same as indicated in Example 1 except that 0.4% V/V methanol was used as the alcohol dehydrogenase inducer and major source of carbon and energy for growth. Following growth, the cells were harvested and washed as described in Example 1. The resting cells of the induced methanol-grown methylotrophic microorganisms were then contacted with secondary alcohols in a buffered solution by the procedure described in Example 1.

[2] = test system: Methylosinus sporium 5 (NRRL B-11,197); test: as above; assay type: cell-based
Procedure: as §1, §2, §3, §4

[3] = test system: cell-free soluble extract of Methylobacterium organophilum CRL 26 (NRRL B-11,222); test: Oxidation of secondary alcohols by cell-free soluble extract (NAD added); assay type: biochemical; details: soluble crude extract, grown on methanol
Procedure: (§5) To prepare the cell-free secondary alcohol dehydrogenase (SADH) system, the washed cells were disrupted with a Wave Energy Ultrasonic Oscillator, Model W201 (Wave Energy System, Inc., Newtown, Pa.) and centrifuged at 20,000× g. for 30 minutes. […] The enzyme activity was measured with a fluorescence spectrophotometer (Perkin Elmer, Model MPF 44A) by following the formation of reduced NAD (EX 340 nm, Em 460 nm). The formation of reduced NAD was also followed with an absorption spectrophotometer at 340 nm. The assay system (3 ml.) contained: potassium phosphate buffer pH 7.0; 150 μmol.; NAD 1 μmol.; a given amount of enzyme preparation; and secondary alcohol 10 μmol. The reaction was started by the addition of substrate. One unit of enzyme activity represents the reduction of one μmole NAD per minute. Protein concentrations were determined by the Lowry method (J. Biol. Chem., 193: 255-275 (1951)).
(§6) The experimental procedure for the tests reported in Table VIII were as follows: 1 mg protein of crude extract was added into a 0.5 ml. 0.05 M phosphate buffer (pH 7.0) in a 10-ml. vial. […] The reaction mixture was incubated at 30° C. on a water bath. A 3 μl sample was removed with a syringe at 15 min. of incubation and was assayed with g.l.c. Catalytic activity was also assayed by fluorescence spectrophotometry.

[4] = test system: cell-free soluble extract of Methylococcus capsulatus CRL M1 (NRRL B-11,219); test: as above; assay type: biochemical; details: soluble crude extract, grown on methanol
Procedure: as §5, §6

[5] = test system: cell-free soluble extract of Methylosinus trichosporium OB3b (NRRL B-11,196); test: as above; assay type: biochemical; details: soluble crude extract, grown on methanol
Procedure: as §5, §6

[6] = test system: cell-free soluble extract of Pseudomonas sp. CRL 75 (ATCC 21,439); test: as above; assay type: biochemical; details: soluble crude extract, grown on methanol
Procedure: as §5, §6

SMILES | Conversion Rates, sec-alcohol to methyl ketone ([1]; cells grown on methanol) | Conversion Rates, sec-alcohol to methyl ketone ([1]; resting cells grown on methane) | Conversion Rates, sec-alcohol to methyl ketone ([2]; cells grown on methanol) | Conversion Rates, sec-alcohol to methyl ketone ([2]; resting cells grown on methane) | Oxidation Rate, sec-alcohol to methyl ketone [3] | Oxidation Rate, sec-alcohol to methyl ketone [4] | Oxidation Rate, sec-alcohol to methyl ketone [5] | Oxidation Rate, sec-alcohol to methyl ketone [6]
CCC(C)O (stereo not drawn) [2-Butanol, 2-butanol] | 3.0 μmoles/hr/mg protein | 3.5 μmoles/hr/mg protein | 3.5 μmoles/hr/mg protein | 3.0 μmoles/hr/mg protein | 2.5 nmole/min/mg protein | 2.0 nmole/min/mg protein | 2.4 nmole/min/mg protein | 25.0 nmole/min/mg protein
CCCCC(C)O (stereo not drawn) [2-Hexanol, 2-hexanol] | – | – | – | – | 0 nmole/min/mg protein | 0 nmole/min/mg protein | 0 nmole/min/mg protein | 0 nmole/min/mg protein
CCCC(C)O (stereo not drawn) [2-Pentanol, 2-pentanol] | – | – | – | – | 0.1 nmole/min/mg protein | 0.1 nmole/min/mg protein | 0.1 nmole/min/mg protein | 1.2 nmole/min/mg protein
CC(C)O [2-Propanol, 2-propanol] | 1.5 μmoles/hr/mg protein | 1.3 μmoles/hr/mg protein | 0.45 μmoles/hr/mg protein | 0.30 μmoles/hr/mg protein | 2.1 nmole/min/mg protein | 1.7 nmole/min/mg protein | 2.0 nmole/min/mg protein | 21.2 nmole/min/mg protein
